Measurements reported in patent US8993559B2, “Use of ibogamine congeners for treating obesity” (Albany Medical College, priority 2008, dated 2015).
“Also recorded” adds a separate entry of the source.

Experiments:
rats [1] = assay: Drug self-administration and water-reinforced responding in rats (earlier studies); type: in vivo, rat
Procedure: Other work has extended the “anti-addictive” effect of 18-MC to oral intake of ethanol. In all cases, these effects last for at least 24 hours. […] Unlike 18-MC, ibogaine and many other iboga alkaloid congeners (approximately 30 tested) decrease responding for water as well as for drugs. And it was precisely this unique specificity that led to development and study of 18-MC.

rats [2] = conditions: systemic pretreatment; cited from earlier work
[3] = Weight gain paradigm: water-drinking animals; type: in vivo, rat; conditions: 18-MC 20 mg/kg i.p. daily for two weeks
Procedure: Animals were allowed unlimited access to regular chow and water and were injected daily with 18-MC (20 mg/kg, i.p.) or vehicle for two weeks. Body weights were recorded immediately prior to injections and were also recorded for an additional week upon cessation of 18-MC treatment.
(§1) For the weight gain experiment, the data for all four treatment groups from days 1-21 were analyzed using two-way ANOVA, with treatment and time as main factors. Furthermore, the data for the first two weeks and the last week for water-vehicle, water-18-MC and sucrose 18-MC were analyzed separately using two-ANOVA, with treatment and time as main factors. Post-hoc comparison tests (Fisher LSD tests) were conducted when appropriate.

Sprague-Dawley rats = assay: Palatable liquid consumption, two-bottle paradigm (19-h sessions); type: in vivo, rat; conditions: for water consumption: water/water control
Procedure: Naïve female Sprague-Dawley rats (230-270 g; Taconic, Germantown, N.Y.) were housed individually and maintained on a normal 12 hr light cycle (light on/off at 7 a.m./7 p.m.) in the colony room. For all experiments, food (normal chow) and water were provided ad libitum. The experiments were conducted in accordance with the “Guide for the Care and Use of Laboratory Animals” (National Academy of Sciences, 1996).
On the first day of the experiment, the regular cage tops were replaced with custom-made cage tops containing metal holders for two 100-ml graduated glass bottles (Lab Products Inc., Seaford, Del.); the bottles were placed approximately 2″ apart. Different groups of rats were allowed 19-h (3.30 p.m.-10.30 a.m.) unlimited access to water and 5% sucrose, water and 0.1% saccharine, water and 0.6% saline, or water and water. The concentrations were chosen in accordance with previous reports using similar two-bottle drinking paradigms. See Dess, N. K., Physiol Behav., 69: 247-257 (2000) and Warwick, Z. S. et al., Physiol Behav, 60: 711-715 (1996), which are hereby incorporated by reference in their entirety. The animals were maintained on a normal chow during these sessions. The bottles with palatable fluids were removed at the end of the 19-h sessions, but water and chow remained always available. The consumption of palatable fluids and water during the sessions were recorded on a daily basis for four consecutive sessions: two initial baseline sessions, one treatment session and one port-treatment session. The baseline consumption levels of fluids were established during the initial two sessions; immediately before the third session, animals were injected with 18-MC (10, 20, or 40 mg/kg i.p.) or vehicle. To account for possible side preferences of rats, the bottle sides were switched daily; animals expressing strong side preferences during the baseline sessions were excluded from further analysis. Each animal was used for four weeks, receiving three different dosages of 18-MC and vehicle in random order.
The average levels of fluid consumption (ml) during the first two sessions (baseline), as well as consumption during the post-injection session and the recovery session, were compared by two-way ANOVA using treatment and session as main factors; this analysis was followed by one-way ANOVAs for each treatment group and post-hoc tests when appropriate.

rats [4] = conditions: cited from earlier work
[5] = tested on: morphine-experienced rats; conditions: cited from earlier work
[6] = Weight gain paradigm: sucrose-drinking animals; type: in vivo, rat
Procedure: FIG. 11 is a graph showing effects of repeated administration of 18-MC (20 mg/kg i.p. for 14 days) on body fat depots (mean±SEM). *=p<0.05. On the seventh day after the last injection of 18-MC, animals were euthanized in CO2 chambers and decapitated. Necropsies were performed to remove periovarian, perirenal and inguinal fat pads.
Animals were maintained on a regular chow and water for the duration of experiment (three weeks). On the first day of experiment, animals received additional bottle containing 30% sucrose solution which remained available for the following three weeks; the bottle sides were switched daily. The body weights of rats were recorded daily for the following two weeks immediately prior administration of 18-MC (20 mg/kg, i.p.) or vehicle. After the last 18-MC injection, the weights were monitored for the additional week.
as §1

[7] = Weight gain of rats on high fat or low fat diet; type: in vivo, rat
Procedure: FIG. 12 is a graph showing effects of 18-MC (20 mg/kg i.p.) on weight gain of rats. Each data point represents daily weight (g, ±S.E.M.) of rats having access to high fat (HF) or low fat (LF) diet and water, and treated with 18-MC or vehicle. The black bar indicates the duration of treatment with 18-MC: =<0.05, 18-MC vs vehicle.
The development of obesity in rats maintained on a high fat diet is perhaps the commonly used animal model of diet-induced obesity.

[8] = saccharin/water experiment, 10, 20 and 40 mg/kg i.p.
[9] = sucrose/water experiment, 10, 20 and 40 mg/kg i.p.

## COCC[C@H]1CC2CN3CCc4c([nH]c5ccccc45)[C@](C(=O)OC)(C2)[C@H]13 [18-MC, 18-methoxycoronaridine]
Rats [1]; 20 mg/kg, i.p., depending on the drug
  decrease of drug self-administration: 40-80%
Rats [1]; at times when self-administration is decreased
  motor effects: no motor effects
Rats [1]; rat, in vivo
  duration of effects on drug self-administration: at least 24 hours
Rats [1]; rat, in vivo, po
  effect on oral intake of ethanol: anti-addictive
Rats [1]; rats
  cocaine, methamphetamine and nicotine self-administration: decreases
  morphine self-administration: dose-dependently decreases
Rats [1]; same doses that decrease drug self-administration
  responding for water (non-drug reinforcer): do not affect
Rats [2]
  intravenous self-administration of morphine and other drugs: reduce
[3]
  body weight of rats maintained on water and chow: no effect
Sprague-Dawley rats; 0.1% saccharin/water, 10 mg/kg i.p.
  saccharin intake, recovery session: reduced intake
Sprague-Dawley rats; 0.1% saccharin/water, 10, 20 and 40 mg/kg i.p.
  saccharin intake, post-injection session vs baseline: significantly less
Sprague-Dawley rats; 0.6% saline/water, 10 mg/kg i.p.
  saline consumption vs baseline: remained unchanged
Sprague-Dawley rats; 0.6% saline/water, 20 and 40 mg/kg i.p., 19 h following injection
  saline consumption vs baseline: reduced
Sprague-Dawley rats; 0.6% saline/water, highest dose (40 mg/kg i.p.)
  effect on saline consumption, recovery session: also significant
Sprague-Dawley rats; 5% sucrose/water, 10, 20 and 40 mg/kg i.p.
  sucrose intake, recovery session: returned to baseline
Sprague-Dawley rats; 5% sucrose/water, 10, 20 and 40 mg/kg i.p., 19-h session
  sucrose consumption, post-injection session vs baseline: significantly reduced
Sprague-Dawley rats; control water/water experiment vs two-bottle experiments
  selectivity for reducing consumption of sucrose and saccharin relative to water: at least four-fold
Sprague-Dawley rats; dose range 10-40 mg/kg i.p.
  ceiling effect dose, consumption of sucrose and saccharin: 10 mg/kg
  ceiling effect dose, saline consumption: 20 mg/kg
Sprague-Dawley rats; saccharin/water experiment, 10 mg/kg i.p.
  effect on total fluid consumption, recovery session: remained significant
Sprague-Dawley rats; [8]
  total fluid consumption (FIG. 3C), 19 h after injection: reduced
  water consumption across sessions: not altered
Sprague-Dawley rats; saline/water experiment, 10 mg/kg i.p.
  total fluid consumption: remained unchanged
Sprague-Dawley rats; saline/water experiment, 10, 20 and 40 mg/kg i.p.
  water consumption across sessions: not different across sessions
Sprague-Dawley rats; saline/water experiment, 20 and 40 mg/kg i.p.
  total fluid consumption: significantly reduced
Sprague-Dawley rats; saline/water experiment, highest dose (40 mg/kg i.p.)
  effect on total fluid consumption, recovery session: also significant
Sprague-Dawley rats; [9]
  total fluid consumption, post-injection session vs baseline: reduced
  water consumption across sessions: remained stable
Sprague-Dawley rats; 40 mg/kg i.p.
  water consumption: significantly reduced
Sprague-Dawley rats; 10 and 20 mg/kg i.p.
  water consumption: remained unchanged
Rats [4]
  signs of acute opioid withdrawal: alleviate
[5]
  sensitized morphine-induced dopamine release in the nucleus accumbens: attenuate
[6]; 18-MC 20 mg/kg i.p. for 14 days, periovarian, perirenal and inguinal fat pads
  weights of fat depots: decreased
[6]; 18-MC-treated sucrose-drinking group
  recovery of the weight gain after cessation of treatment: did not occur for another week
[6]; 30% sucrose, 18-MC 20 mg/kg i.p. daily for two weeks
  sucrose-induced (excessive) weight gain: attenuated; also recorded: totally prevented
[6]; 30% sucrose, 18-MC (40 mg/kg i.p.) as printed, all time points except the first
  body weights vs vehicle-treated sucrose-drinking animals: significantly lower
[7]; 18-MC 20 mg/kg i.p. daily for two weeks, 45 kcal % fat
  excessive weight gain attributable to the high fat diet: totally prevented
[7]; 18-MC 20 mg/kg i.p. for two weeks, high fat diet
  decrease of weights of fat depots in HF rats: about 35%
[7]; 18-MC 20 mg/kg i.p. for two weeks, low fat diet (10 kcal % fat)
  decrease of weights of fat depots in LF rats: not in LF rats
